≈ marks a conversion by molar mass, not a printed value. Where “and” joins values, the source holds several entries; their conditions need not be identical. Identical values can stand only once. Like-named read-outs stand apart in the source and are kept apart here.
Columns and labels:
[1] = test system: Candida albicans (ATCC 10231); assay: Candida albicans anti-fungal MIC potency determination; type: cell-based
Experimental: The wild type Candida albicans (ATCC 10231) was used and Fluconazole, amphotericin B, itraconazole and terbinafine were purchased from Sigma and used as positive controls.
The highest assay concentration for all test compounds and fluconazole was 100 μM. Fluconazole was also tested at the highest concentration of 64 μg/ml, and amphotercin B and terbinafine at 16 and 64 μg/ml. The test compounds were in DMSO stock solution at a concentration of 10 mM. Two stock solutions in DMSO were prepared for fluconazole at 10 mM and 6.4 mg/ml. Amphotericin B and terbinafine stock solutions in DMSO were prepared at 1.6 and 6.4 mg/ml.
Serial dilution of 100× stock solutions: 4 μl of stock solution was added into 196 μl of RPMI1640 (MOPS buffered and free of HEPES and sodium bicarbonate) in the first well of a row of a sterile u-bottom 96-well plate. The rest of the wells was filled with 100 μl RPMI1640. The 2-fold serial dilution was made sequentially by transferring 100 μl solution to the next well and mixing by pipetting, until 11th well. The extra 100 μl in 11th well was discarded. Therefore, the compound wells contained 100 μl of 2× of testing concentrations of drugs in RPMI1640. The 12th well was filled with only 100 μl RPMI1640.
C. albicans 3147 (ATCC 10231) glycerol frozen stock was streaked on Sabouraud dextrose agar (SDA). The plate was incubated at 35° C. ambient atmosphere for 20 h. Single colonies were suspended into sterile saline until turbidity reached 0.1 (1-5×10^6 CFU/ml) using a Siemens turbidity meter. This suspension was diluted 50× in RPMI1640 in a 15 ml conical, and then it was further diluted 20× in RPMI1640 in a 50 ml conical. This gave 1-5×10^3 CFU/ml suspension and was used as inoculum. The cell density in inoculum was plate-counted to be 4.94×10^3 CFU/ml.
The plates were incubated at 35° C. in ambient atmosphere. The photos were taken at 24 h and 48 h. The MIC end points for fluconazole and amphotericin B were read according to the M27-A3 protocol (Reference Method for Broth Dilution Antifungal Susceptibility Testing of Yeasts; Approved Standard-Third Edition, M27-A3 standard published Jan. 1, 2008 by Clinical and Laboratory Standards Institute). The MIC for compounds for test cmpds and terbinafine (not mentioned in M27-A3 protcol) were read as if they were azoles.

[2] = test system: fibroblast to myofibroblast transdifferentiation (primary human lung fibroblasts and primary rodent HSCs); assay: High content imaging and western based assay of fibroblast to myofibroblast transdifferentiation (α-SMA); type: cell-based; conditions: graded, TGF-β induced fibroblast to myofibroblast transdifferentiation
Source text: A high content imaging assay, based on α-SMA staining and cell morphological changes associated with fibroblast to myofibroblast transdifferentiation, was established using primary human lung fibroblasts and primary rodent HSCs. Conditions, involving serum starvation and subsequent TGF-β treatment, were identified that facilitate robust in vitro transdifferentiation in a miniaturized (384 well plate) format that is amenable to high throughput small molecule screening. A selective ALK-5 TGF-β1 receptor inhibitor (SB-431542) was used as a positive control. […] This assay was used to identify a hit compound (itraconazole) and was used to evaluate focused panels of itraconazole analogues generated from medicinal chemistry efforts.
The activity of Itraconazole and its analogues was confirmed by analyzing changes in gene expression of multiple genes associated with fibroblast to myofibroblast transdifferentiation using biochemical methods (i.e., Western blot and RT-PCR). These 4-day assays were used to evaluate sets of 6 compounds at a time in 4-point dose response fashion.
After 24 hour incubation, cells were treated with the indicated doses of itraconazole for 48 hours in the presence of 10 ng/mL of TGF-β1 in hepatic stellate medium. Following fixation and staining with an anti smooth muscle actin antibody, cell morphology was analyzed with a Cellomics cell insight imaging reader (FIG. 1 for representative images). Cells were analyzed for mean cellular area of a-SMA staining (FIG. 5a) or mean fluorescence intensity of SMA staining (FIG. 5b).
After 24 incubation, medium was changed to assay medium containing TGF-β1 (10 ng/mL) and simultaneously treated with itraconazole (10 μM), SB431542 (10 μM) or vehicle control (FIG. 6).

Cyp3A4 = Cyp3A4 (Homo sapiens, UniProt P08684); assay: Cyp reversible inhibition assay (human liver microsomes)
Experimental: The purpose of this assay was to determine reversible inhibition of Cyp enzyme with a given compound using a substrate probe turnover as the surrogate for inhibition. This was done with human liver microsomes rather an isolated enzyme to account for metabolites of parent drug leading to a potential drug-drug interaction through Cyp inhibition. The substrate turnover (for example conversion of midazolam to hydroxyl midazolam) was monitored by LCMSMS (Q1/Q2=342.2/203.2). Test compounds were tested in a 7-point dose response curve starting from 50 μM to 50 nM (˜3-fold dilution series).
The detailed protocol was as follows: • Prepared test compounds and standard inhibitors working solution (100×) • Pulled microsomes out of the −80° C. freezer to thaw on ice, labeled with the date and put back to freezer immediately after using. • Added 20 μL of the substrate solutions to corresponding wells. • Added 20 μL PB to Blank wells. • Added 2 μL of the test compounds and positive control working solution to corresponding wells. • Added 2 μL MeOH to No Inhibitor wells and Blank wells. • Prepared HLM working solution. • Added 158 μL of the HLM working solution to all wells of incubation plate. • Pre-warmed the plate for about 10 min at 37° C. water bath. • Prepared NADPH cofactor solution. • Added 20 μL NADPH cofactor to all incubation wells. • Mixed and incubated for 10 minutes at 37° C. water bath. • At the time point, terminated the reaction by adding 400 μL cold stop solution (200 ng/mL Tolbutamide in ACN). • Centrifuged the samples at 4000 rpm for 20 minutes to precipitate protein. • Transferred 200 μL supernatant to 200 μL HPLC water and shook for 10 min. • Analyzed samples by LC/MS/MS.

[3] = ATCC10231, 24 h, read-out: C. Albicans MIC90 at 24 h
[4] = ATCC10231, 48 h, read-out: C. Albicans MIC90 at 48 h
[5] = Cyp 3A4 midazolam LCMS IC50, human liver microsomes, substrate midazolam
[6] = Cyp 3A4 testosterone LCMS IC50, human liver microsomes, substrate testosterone

Sequence of Cyp3A4 (P08684 whole entry): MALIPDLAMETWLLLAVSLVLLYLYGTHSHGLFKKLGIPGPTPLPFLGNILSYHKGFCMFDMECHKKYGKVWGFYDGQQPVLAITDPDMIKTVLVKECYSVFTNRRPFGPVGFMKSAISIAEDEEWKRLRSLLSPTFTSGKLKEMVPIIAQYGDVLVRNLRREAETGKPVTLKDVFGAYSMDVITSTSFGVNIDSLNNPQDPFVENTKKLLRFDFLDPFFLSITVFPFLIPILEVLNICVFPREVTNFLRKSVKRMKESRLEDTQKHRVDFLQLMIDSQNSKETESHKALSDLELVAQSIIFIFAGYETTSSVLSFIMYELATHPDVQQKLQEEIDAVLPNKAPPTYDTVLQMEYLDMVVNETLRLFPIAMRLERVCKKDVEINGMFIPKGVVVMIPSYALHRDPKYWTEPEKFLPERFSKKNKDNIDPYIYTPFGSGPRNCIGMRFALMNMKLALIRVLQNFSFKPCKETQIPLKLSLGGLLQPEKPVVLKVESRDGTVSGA

MIC90 [1, 3] | MIC90 [1, 4] | IC50 (Cyp3A4; [5]) | IC50 (Cyp3A4; [6]) | SMILES | EC50 [2]
0.195 µM (≈ 0.137 µg/mL) | 0.195 µM (≈ 0.137 µg/mL) | 0.0031 µM | 0.0069 µM | CCC(C)n1ncn(-c2ccc(N3CCN(c4ccc(OC[C@@H]5CO[C@@](Cn6ccnc6)(c6ccc(Cl)cc6Cl)O5)cc4)CC3)cc2)c1=O (stereo partly drawn) [Compound 19] | 0.5 to 5 µM
> 100 µM | > 100 µM | 0.144 µM | 0.12 µM | CCC(C)n1ncn(-c2ccc(N3CCN(c4ccc(OC[C@@H]5CO[C@@](Cc6cncnc6)(c6ccc(Cl)cc6Cl)O5)cc4)CC3)cc2)c1=O (stereo partly drawn) [Compound 21] | 0.5 to 5 µM
> 100 µM | > 100 µM | 0.321 µM |  | CCC(C)n1ncn(-c2ccc(N3CCN(c4ccc(OC[C@@H]5CO[C@@](Cc6ccncc6)(c6ccc(Cl)cc6Cl)O5)cc4)CC3)cc2)c1=O (stereo partly drawn) [Compound 23] | < 0.5 µM
> 100 µM | > 100 µM | 0.18 µM | 0.283 µM | CCC(C)n1ncn(-c2ccc(N3CCN(c4ccc(OC[C@@H]5CO[C@@](Cc6cccnc6)(c6ccc(Cl)cc6Cl)O5)cc4)CC3)cc2)c1=O (stereo partly drawn) [Compound 26] | 0.5 to 5 µM
> 100 µM | > 100 µM | > 50 µM | > 50 µM | CCC(C)n1ncn(-c2ccc(N3CCN(c4ccc(OC[C@@H]5CO[C@@](Cn6cccn6)(c6ccc(Cl)cc6Cl)O5)cc4)CC3)cc2)c1=O (stereo partly drawn) [Compound 27] | 5 to 30 µM
> 100 µM | > 100 µM | > 50 µM | > 50 µM | CCC(C)n1ncn(-c2ccc(N3CCN(c4ccc(OC[C@@H]5CO[C@@](Cn6nccn6)(c6ccc(Cl)cc6)O5)cc4)CC3)cc2)c1=O (stereo partly drawn) [Compound 30] | 0.5 to 5 µM
> 100 µM | > 100 µM | > 50 µM | > 50 µM | CCC(C)n1ncn(-c2ccc(N3CCN(c4ccc(OC[C@@H]5CO[C@@](Cn6nccn6)(c6ccccc6Cl)O5)cc4)CC3)cc2)c1=O (stereo partly drawn) [Compound 32] | 5 to 30 µM
> 100 µM | > 100 µM | > 50 µM | > 50 µM | CCC(C)n1ncn(-c2ccc(N3CCN(c4ccc(OC[C@@H]5CO[C@@](Cn6nccn6)(c6ccc(Cl)c(Cl)c6)O5)cc4)CC3)cc2)c1=O (stereo partly drawn) [Compound 36] | 5 to 30 µM
> 100 µM | > 100 µM | > 50 µM | > 50 µM | CCC(C)n1ncn(-c2ccc(N3CCN(c4ccc(OC[C@@H]5CO[C@@](Cn6nccn6)(c6ccccc6C)O5)cc4)CC3)cc2)c1=O (stereo partly drawn) [Compound 41] | 0.5 to 5 µM
> 100 µM | > 100 µM | > 50 µM | > 50 µM | CCC(C)n1ncn(-c2ccc(N3CCN(c4ccc(OC[C@@H]5CO[C@@](Cn6nccn6)(c6ccc(Cl)cc6Cl)O5)c(F)c4)CC3)cc2)c1=O (stereo partly drawn) [Compound 49] | 0.5 to 5 µM
> 100 µM | > 100 µM | > 50 µM | > 50 µM | CCC(C)n1ncn(-c2ccc(N3CCN(c4ccc(OC[C@@H]5CO[C@@](Cn6nccn6)(c6ccc(Cl)cc6Cl)O5)cc4F)CC3)cc2)c1=O (stereo partly drawn) [Compound 54] | < 0.5 µM
> 100 µM | > 100 µM | > 50 µM | > 50 µM | CCC(C)n1ncn(-c2ccc(N3CCN(c4ccc(OC[C@@H]5CO[C@@](Cn6nccn6)(c6ccc(Cl)cc6Cl)O5)c(C#N)c4)CC3)cc2)c1=O (stereo partly drawn) [Compound 79] | 0.5 to 5 µM
> 100 µM | > 100 µM | 2.55 µM and 2.35 µM | 1.77 µM | CCC(C)n1ncn(-c2ccc(N3CCN(c4ccc(OC[C@@H]5CO[C@@](Cc6ccnnc6)(c6ccccc6)O5)cc4)CC3)cc2)c1=O (stereo partly drawn) [Compound 84] | 0.5 to 5 µM
0.781 µM (≈ 0.562 µg/mL) | 1.56 µM (≈ 1.12 µg/mL) | 0.372 µM | 0.545 µM | CCC(C)n1ncn(-c2ccc(N3CCN(c4ccc(OC[C@@H]5CO[C@@](CCn6cncn6)(c6ccc(Cl)cc6Cl)O5)cc4)CC3)cc2)c1=O (stereo partly drawn) [Compound 100] | < 0.5 µM
> 100 µM | > 100 µM |  |  | CCC(C)n1ncn(-c2ccc(N3CCN(c4ccc(OC[C@@H]5CO[C@@](CCCn6cncn6)(c6ccc(Cl)cc6Cl)O5)cc4)CC3)cc2)c1=O (stereo partly drawn) [Compound 101] | 5 to 30 µM
